Laboratory results taken from patent US9908886B2 (Agency for Science, Technology and Research, priority 2012, dated 2018).
“Also recorded” adds a separate entry of the source. Read-outs that look alike come from different tables or passages of the source.

Key:
[1] = tested on: P116.c139 cells; assay: Cell cytotoxicity assay (CellTiter-Glo); format: cell-based
Experimental: (§1) Cancer cell lines, MV-4-11 (leukemia), P116.c139 (acute T cell leukemia) and D1.1 (acute T cell leukemia), were purchased from ATCC and cultured according to supplier's recommendations. K562 cells (myelogenous leukemia) over-expressing eIF4E, were also used for the cytotoxicity assay. For cells treated for 48 hours, 5000 cells were seeded in 70 μl of growth medium in black, flat-bottom 96-well plate. For cells treated for six days, 1000 cells were seeded in 70 μl of growth medium in black, flat-bottom 96-well plate. […] 50 μl of the diluted compounds was added to the cells and incubated at 37° C. in 5% CO2. After 48 hours or six days treatment, cell viability was determined by CellTiter-Glo Luminescent Cell Viability Assay (Promega, Madison, Wis.). 120 μl of the reagent was added to the cells and luminescence was measured using Tecan Safire Reader. Data was analysed with Graphpad Prism software and the figures represented indicate the half maximal inhibitory concentration (IC50). Error bars denote standard deviation (SD).

[2] = tested on: D1.1 cells; assay: Cell cytotoxicity assay (CellTiter-Glo); format: cell-based
Experimental: as §1

[3] = tested on: K562 cells over-expressing eIF4E; assay: Cell cytotoxicity assay (CellTiter-Glo); format: cell-based; details: for change of IC50 with treatment duration, K562 cells over-expressing eIF4E: 48 hours extended to 6 days
Experimental: as §1

[4] = tested on: MV-4-11 cells; assay: Cell cytotoxicity assay (CellTiter-Glo); format: cell-based
Experimental: as §1

[5] = tested on: eIF4E phosphorylation in K562 cells; assay: Western blot of eIF4E phosphorylation in BC-CML cell line; format: cell-based; details: various concentrations, 24 h
Experimental: (§2) K562 cell line was obtained from the ATCC, and grown in RPMI supplemented with 10% FCS, L-glutamine, and penicillin/streptomycin.
(§3) Exponentially growing cells were plated at 2×10^5 cells/ml, and whole cell lysate processed for western blot analysis using antibodies recognizing eIF4E, phospho-eIF4E (Cell signaling Technology),

[6] = tested on: CD34+ BC-CML primary cells; assay: Serial replating assay; format: cell-based, human; details: for serial replating efficiency of CD34+ BC cells: increasing dose, 48 hr treatment, compared to DMSO
Excerpt: (§4) Cord Blood (CB) samples were purchased from the Singapore Cord Blood bank. CML samples were the Singapore General Hospital after signed informed consent under local IRB-approved procedures. MNCs were obtained using Ficoll separation, and CD34^+ cells selected by immunomagnetic beads (Miltenyi Biotech, Germany).
CD34-enriched CB and BC cells were thawed and allowed to recover overnight in serum-free StemPro media (Invitrogen, Carlsbad, Calif.), supplemented with human growth factors and 1× nutrient supplement (Invitrogen). Cells were then subjected to drug treatment for 48 hr, harvested, washed, and seeded in methycellulose (H4434, […] Technologies, Canada). Colonies were enumerated after 2 weeks, individually picked, and replated in fresh methylcellulose in a 96-well format, and counted at 2 weeks. Three rounds of serial replating (representing>8 weeks in culture) were performed.

[7] = molecular target: MNK2 (Homo sapiens (Human), UniProt Q9HBH9); assay: In vitro MNK kinase assay (Caliper LabChip mobility shift); format: biochemical; details: enzymatic, 250 μM ATP; read-out: IC50 Mnk2
Chain of MNK2 (Q9HBH9 84-388): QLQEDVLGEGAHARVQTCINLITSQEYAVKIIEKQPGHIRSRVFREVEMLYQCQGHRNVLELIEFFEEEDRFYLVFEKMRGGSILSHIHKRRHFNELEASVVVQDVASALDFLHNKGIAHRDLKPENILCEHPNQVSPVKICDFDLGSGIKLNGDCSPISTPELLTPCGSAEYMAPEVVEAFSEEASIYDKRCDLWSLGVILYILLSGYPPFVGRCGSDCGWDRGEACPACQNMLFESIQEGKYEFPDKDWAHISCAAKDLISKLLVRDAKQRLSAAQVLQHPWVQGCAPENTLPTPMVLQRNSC

[8] = molecular target: MNK1 (Homo sapiens, UniProt Q9BUB5); assay: as above; format: biochemical; details: enzymatic, 1.2 mM ATP; read-out: IC50 Mnk1
[9] = tested on: eIF4E Ser209 phosphorylation in Hela cells; assay: MNK cell-based assay, AlphaScreen SureFire; details: 2 hours
Excerpt: It has been reported that Ser209 of eIF4E is solely phosphorylated by the MNK enzymes. The ability of compounds to inhibit this process in Hela cells was investigated using the AlphaScreen SureFire® assay platform from Perkin Elmer (Waltham, Mass.). eIF4E phosphorylated on Ser209 is recognized by two antibodies, the first which is fused to a streptavidin coated donor bead binds to an epitope away from Ser209, the second which is fused to a protein A conjugated acceptor bead binds to phosphorylated Ser209. The phosphorylation of eIF4E on Ser209 brings the two antibodies into close proximity and when excited by a laser a singlet oxygen is released by the donor bead which excites the acceptor bead resulting in the emission of light. This enables the monitoring of eIF4E Ser209 phosphorylation and its inhibition in a cellular context.
Hela cells were seeded into microtitre plates (30,000 cells per well) in 100 μl of culture medium and incubated at 37° C. for 24 hours. The media was then removed by aspiration and the cells resuspended in 50 μl of serum free medium containing the test compound and incubated at 37° C. for 2 hours. The culture medium was again removed by aspiration and the cells resuspended in lysis buffer (provided in Perkin Elmer SureFire® Assay Kit). After agitation at 350 rpm for 20 minutes at 22° C., 4 μl was transferred to a 384 well OptiPlate™ (Perkin Elmer, Waltham, Mass.). To each well was added 5 μl of acceptor mix; the plate was sealed and agitated gently at 22° C. for 2 hours. Then, in subdued light, 2 μl of donor mix was added to each well, the plate was sealed, wrapped in aluminum foil and agitated gently at 22° C. for 2 hours. Emission was measured using the EnVision® plate reader (Perkin Elmer, Waltham, Mass.).
Inhibition constants (IC50) were determined by plotting AlphaScreen signal versus log compound concentration and fitting with a non-linear regression algorithm using GraphPad Prism (GraphPad Software Inc.).

[10] = tested on: nuclear beta-catenin in BC-CML cells; assay: Immunofluorescence analysis of nuclear active beta-catenin; format: cell-based, human
Excerpt: as §4
Cells (1×10^5) were cytospun onto glass slides, fixed with 4% paraformaldehye, and stained with mouse monoclonal antibodies against activated β-catenin (clone 8E7, Millipore, UK), or rabbit monoclonal antibodies against phospho-eIF4E S209 (EP2151Y, Abeam, UK). Slides were then stained with either PE-conjugated anti-mouse or FITC-conjugated anti-rabbit antibodies. Images were obtained with the use of a fluorescence microscope (Olympus IX71S1F3) at 40× magnification.

[11] = tested on: BCR-ABL activity (phosphorylation of CrKl) in K562 cells; assay: Western blot of CrKl phosphorylation in K562 cells; format: cell-based
Experimental: as §2, §3

[12] = tested on: CD34+ BC-CML primary cells; details: background section; including cells carrying T315I mutation; cited from earlier work
[13] = tested on: patient-derived BC cells in NSG mice; details: in vivo treatment for three consecutive weeks; CGP57380 40 mg/kg/d, dasatinib 5 mg/kg/d; background section; cited from earlier work
[14] = tested on: eIF4E phosphorylation in BC GMPs; details: background section; cited from earlier work

**Q.** What does the source list for `CC(=O)C1=C(O)C=C2Oc3c(C(N)=O)c(O)cc(O)c3[C@]2(C)C1=O` [Cercosporamide, reference compound]?
**A.** IC50 ([1]; 48 hours, read-out: IC50 after 48 hours of treatment, P116.c139): > 50000 nM; IC50 ([1]; 6 days, read-out: IC50 after 6 days of treatment, P116.c139): 4900 nM; IC50 ([2]; 48 hours, read-out: IC50 after 48 hours of treatment, D1.1): 20200 nM; IC50 ([2]; 6 days, read-out: IC50 after 6 days of treatment, D1.1): 17300 nM; IC50 ([3]; 48 hours, read-out: IC50 after 48 hours of treatment, K562): > 50000 nM; IC50 ([3]; 6 days, read-out: IC50 after 6 days of treatment, K562): 4300 nM; IC50 ([4]; 48 hours, read-out: IC50 after 48 hours of treatment, MV-4-11): > 50000 nM; IC50 ([4]; 6 days, read-out: IC50 after 6 days of treatment, MV-4-11): 4000 nM

**Q.** Which results are given for `CN1CCN(C(=O)c2ccc(-c3cn4c(-c5ccc(O)cc5)cnc4cn3)cc2)CC1` [Example 1, (4-(3-(4-hydroxyphenyl)imidazo[1,2-a]pyrazin-6-yl)phenyl)(4-methylpiperazin-1-yl)methanone]?
**A.** eIF4E phosphorylation [5]: prevent eIF4E phosphorylation; serial replating efficiency of CD34+ BC cells [6]: retards the serial replating efficiency; IC50 [7]: < 100 nM; IC50 [8]: < 100 nM

**Q.** With `O=C(c1ccc(-c2cn3c(-c4ccc(O)cc4)cnc3cn2)cc1)N1CCOCC1` [Example 2, (4-(3-(4-hydroxyphenyl)imidazo[1,2-a]pyrazin-6-yl)phenyl)(morpholino)methanone] as the compound, how does the eIF4E phosphorylation [5] read?
**A.** prevent eIF4E phosphorylation

**Q.** What about the “ability of BC cells to serial replate” value ([6]; at 10.0 μM and 20.0) of the same compound?
**A.** potently impaired the ability of BC cells to serial replate

**Q.** What about the “serial replating efficiency of CD34+ BC cells” value [6] of the same compound?
**A.** retards serial replating efficiency

**Q.** And the IC50 [7]?
**A.** < 1000 nM

**Q.** What about the IC50 [8] of the same compound?
**A.** < 1000 nM

**Q.** For `CN1CCN(C(=O)c2ccc(-c3cn4c(-c5ccc(C#N)cc5)cnc4cn3)cc2)CC1` [Example 6, 4-(6-(4-(4-methylpinerazine-1-carbonyl)phenyl)imidazo[1,2-a]pyrazin-3-yl)benzonitrile], which eIF4E phosphorylation [5] is on record?
**A.** prevent eIF4E phosphorylation

**Q.** Which IC50 ([9]; Homo sapiens) does the source give for `CN1CCN(C(=O)c2ccc(-c3ccc4ncc(-c5ccc(C#N)cc5)n4n3)cc2)CC1` [Example 54] here?
**A.** < 1000 nM

**Q.** What does the source list for `N#Cc1ccc(-c2cnc3ccc(-c4ccc(C(=O)N5CCOCC5)cc4)nn23)cc1` [Example 62, 4-(6-(4-(morpholine-4-carbonyl)phenyl)imidazo[1,2-b]pyridazin-3-yl)benzonitrile]?
**A.** nuclear beta-catenin accumulation [10]: decrease in nuclear beta-catenin accumulation; change of IC50 with treatment duration, K562 cells over-expressing eIF4E [3]: reduced by more than half; eIF4E phosphorylation [5]: decrease in eIF4E phosphorylation; also recorded: prevent eIF4E phosphorylation; BCR-ABL activity (phosphorylation of CrKl) [11]: decrease in BCR-ABL activity; IC50 [7]: < 100 nM; IC50 [8]: < 100 nM

**Q.** Which IC50 [9] does the source give for `N#Cc1ccc(-c2cnc3ccc(-c4ccc(C(=O)N5CCN(c6ccncc6)CC5)cc4)cn23)cc1` [Example 125, 4-(6-(4-(4-(pyridin-4-1)piperazine-1-carbonyl)phenyl)imidazo[1,2-a]pyridin-3-yl)benzonitrile] here?
**A.** < 1000 nM

**Q.** What does the source list for `CN1CCN(C2CCN(C(=O)c3ccc(-c4ccc5ncc(-c6ccc(C#N)cc6)n5c4)cc3)CC2)CC1` [Example 133, 4-(6-(4-(4(4-methylpiperazin-1-yl)piperidine-1-carbonyl)phenyl)imidazo[1,2-a]pyridin-3-yl)benzonitrile]?
**A.** change of IC50 with treatment duration, P116.c139 cells ([1]; 48 hours extended to 6 days): decrease the IC50 by more than half-fold; change of IC50 with treatment duration, D1.1 cells ([2]; 48 hours extended to 6 days): not influenced by the treatment duration; change of IC50 with treatment duration, K562 cells over-expressing eIF4E [3]: not influenced by the treatment duration; IC50 [7]: < 100 nM; IC50 [8]: < 100 nM

**Q.** With `CN1CCN(C(=O)c2ccc(-c3ccc4ncc(-c5ccc(C#N)cc5)n4c3)cc2O)CC1` [Example 143, 4-(6-(3-hydroxy-4-(4-methylpiperazine-1-carbonyl)phenyl)imidazo[1,2-a]pyridin-3-yl)benzonitrile] as the compound, how does the IC50 ([9]; Homo sapiens) read?
**A.** < 1000 nM

**Q.** And the IC50 [7]?
**A.** < 100 nM

**Q.** What about the IC50 [8] of the same compound?
**A.** < 100 nM

**Q.** For `CN1CCN(C(=O)c2ccc(-c3ccc4ncc(-c5ccc(C#N)cc5)n4c3)c(O)c2)CC1` [Example 144, 4-(6-(2-hydroxy-4-(4-methylpiperazine-1-carbonyl)phenyl)imidazo[1,2-a]pyridin-3-yl)benzonitrile], which IC50 ([9]; Homo sapiens) is on record?
**A.** < 1000 nM

**Q.** What about the IC50 [7] of the same compound?
**A.** < 100 nM

**Q.** What about the IC50 [8] of the same compound?
**A.** < 100 nM

**Q.** Which nuclear beta-catenin accumulation [10] does the source give for `CN1CCN(C(=O)c2ccc(-c3ccn4ncc(-c5ccc(C#N)cc5)c4n3)cc2)CC1` [Example 176, 4-(5-(4-(4-methylpiperazine-1-carbonyl)phenyl)pyrazolo[1,5-a]pyrimidin-3-yl)benzonitrile] here?
**A.** decrease in nuclear beta-catenin accumulation

**Q.** What about the “change of IC50 with treatment duration, K562 cells over-expressing eIF4E” value [3] of the same compound?
**A.** reduced by more than half

**Q.** What about the eIF4E phosphorylation [5] of the same compound?
**A.** decrease in eIF4E phosphorylation; also recorded: prevent eIF4E phosphorylation

**Q.** What about the “BCR-ABL activity (phosphorylation of CrKl)” value [11] of the same compound?
**A.** decrease in BCR-ABL activity

**Q.** And the IC50 [7]?
**A.** < 100 nM

**Q.** What about the IC50 [8] of the same compound?
**A.** < 100 nM

**Q.** Which results are given for `Cc1nc(Nc2ncc(C(=O)Nc3c(C)cccc3Cl)s2)cc(N2CCN(CCO)CC2)n1` [dasatinib]?
**A.** ability of CD34+ BC cells to serially replate for more than 8 weeks in methylcellulose [12]: only partially impaired; serial transplantation of BC cells in NSG mice at 16 weeks [13]: not; eIF4E phosphorylation in BC GMPs [14]: not

**Q.** What does the source list for `Cc1ccc(NC(=O)c2ccc(CN3CCN(C)CC3)cc2)cc1Nc1nccc(-c2cccnc2)n1` [imatinib]?
**A.** ability of CD34+ BC cells to serially replate for more than 8 weeks in methylcellulose [12]: only partially impaired; eIF4E phosphorylation in BC GMPs [14]: not

**Q.** For “N-(1-(4-(3-(4-chlorophenyl)imidazo[1,2-a]pyrazin-6-yl)benzoyl)piperidin-4-yl)-2,2,2-acetamide [Example 49]”, which IC50 [9] is on record?
**A.** < 1000 nM

**Q.** For “N-(5-(3-(4-cyanophenyl)imidazo[1,2-b]pyridazin-6-yl)-2-morpholine-4-carbonyl)phenyl)acetamide [Example 80]”, which IC50 [9] is on record?
**A.** < 1000 nM
